Bounds are passed on as bounds.

Data set [1] deals with Dual. Briefly: Phenoscreen viral entry inhibition assay, Dual. In kind it is cell-based, HIV. The conditions noted are these: Human immunodeficiency virus 1, read-out: Viral Entry Inhibition Dual. As to the method:
(§1) A selected set of compounds were tested for their ability to inhibit the cellular entry of T-tropic HIV. The assay for this inhibition has been carried out on a contractural basis at Monogram Biosciences, Inc. using their well established Phenoscreen™ assay. Briefly, HIV strains of interest are tagged with a luciferase indicator gene to create an appropriate test vector. The test vector is amplified through transfection and the resulting virus is incubated in the presence of target host cells where intracellular florescence activity then becomes a measure of infection. Amplified virus is exposed to target host cells in the presence of a range of test drug concentrations to determine IC50 measurements of entry inhibition. A modification of this test has been further reapplied as a novel drug assay that has been used in partnership with a number of pharmaceutical companies to test the effectiveness of novel entry inhibitors that target specific chemokines. It can used to detect activity against T-tropic, M-tropic, and dual-tropic viruses and Monogram Biosciences has a large bank of over 10,000 different virus strains to ultimately asses the range of applicability of our CXCR4 antagonists. Certain compounds have been tested to establish efficacy in a number of viral strains.

Data set [2] concerns Vrs-1. Briefly: Phenoscreen viral entry inhibition assay, Vrs-1. The format is cell-based, HIV. The conditions noted are these: Human immunodeficiency virus 1, read-out: Viral Entry Inhibition Vrs-1. The procedure:
as §1

The subject of data set [3] is HXB2. Briefly: Phenoscreen viral entry inhibition assay, HXB2. The settings on record: Human immunodeficiency virus 1, HXB2, read-out: Viral Entry Inhibition HXB2. In kind it is cell-based, HIV. As to the method:
as §1

For data set [4], the system named is NL4-3. Briefly: Phenoscreen viral entry inhibition assay, NL4-3. The settings on record: Human immunodeficiency virus 1, NL43, read-out: Viral Entry Inhibition NL4-3. In kind it is cell-based, HIV. The procedure:
as §1

In data set [5] the test system is Vrs-2. Briefly: Phenoscreen viral entry inhibition assay, Vrs-2. The format is cell-based, HIV. The conditions noted are these: Human immunodeficiency virus 1, read-out: Viral Entry Inhibition Vrs-2. The procedure: as §1
Data set [6] deals with MDA-MB-231 cells. Briefly: Cell viability of MDA-MB-231 cells. The settings on record: even at 100 μM (the highest concentration tested). In kind it is cell-based.
The test system of data set [7] is SHIV. Briefly: Phenoscreen viral entry inhibition assay, SHIV. The format is cell-based. As to the method:
as §1

The target in data set [8] is CXCR4 (Homo sapiens, UniProt P61073). Briefly: Competition assay using biotin-labeled TN14003 on tumor cells. The format is binding. The conditions noted are these: FIG. 5, cells pre-incubated with various concentrations; read-out: IC50 (biotin-labeled TN14003 detection of CXCR4 after pre-incubation). The procedure: Biotin-labeled TN14003 was used to detect CXCR4 protein from the cells pre-incubated with various concentrations of WZZL811S.
Sequence of CXCR4 (P61073 whole entry): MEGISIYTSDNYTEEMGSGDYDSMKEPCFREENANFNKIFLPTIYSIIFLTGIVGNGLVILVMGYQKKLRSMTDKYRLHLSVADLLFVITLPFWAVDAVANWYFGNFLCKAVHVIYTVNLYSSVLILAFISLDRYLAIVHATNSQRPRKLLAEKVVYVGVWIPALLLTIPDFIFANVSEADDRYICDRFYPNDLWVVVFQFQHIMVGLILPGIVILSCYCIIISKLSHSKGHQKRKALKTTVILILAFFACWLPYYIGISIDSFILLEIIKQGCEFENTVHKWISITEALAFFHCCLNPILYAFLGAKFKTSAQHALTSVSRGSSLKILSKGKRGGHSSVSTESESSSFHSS
Using biotin-labeled TN14003 along with streptavidin-conjugated rhodamine allowed a determination of the binding efficiency of these chemicals to the SDF-1 binding site of CXCR4 on tumor cells and compared it to AMD3100-SDF-1 interactions (FIG. 4). […] Cells were pre-incubated with different concentrations of AMD3100. […] Therefore, one of these compounds, WZZL811S, was selected to study its therapeutic potential based on potency and low toxicity to cells (FIG. 6).

In data set [9] the test system is Vrs-3. Briefly: Phenoscreen viral entry inhibition assay, Vrs-3. In kind it is cell-based, HIV. The conditions noted are these: Human immunodeficiency virus 1, read-out: Viral Entry Inhibition Vrs-3. The procedure:
as §1

As to `c1ccc(NCc2ccc(CNc3ccccn3)cc2)nc1` [WZZL811S], the IC50 was more than 15 µM in data set [1]; more than 15 µM in data set [2]; more than 15 µM in data set [3]; more than 15 µM in [4]; approximately 12 µM in data set [5]; more than 15 µM in [7]. For the same molecule, the IC50 in [8] was less than 0.001 µM; in data set [9] it was more than 15 µM. Besides, the “cell viability of MDA-MB-231 cells” value in data set [6] is listed as “did not decrease cell viability”.
